29 molecules from patent publication US20250171462A1 (NICO Therapeutics, Inc., priority 2022, published 2025) can be followed below.

This assay has as its target T1, full-length SARM1 (FL-SARM1) (Homo sapiens, UniProt Q6SZW1).
T1 sequence (Q6SZW1 28-724): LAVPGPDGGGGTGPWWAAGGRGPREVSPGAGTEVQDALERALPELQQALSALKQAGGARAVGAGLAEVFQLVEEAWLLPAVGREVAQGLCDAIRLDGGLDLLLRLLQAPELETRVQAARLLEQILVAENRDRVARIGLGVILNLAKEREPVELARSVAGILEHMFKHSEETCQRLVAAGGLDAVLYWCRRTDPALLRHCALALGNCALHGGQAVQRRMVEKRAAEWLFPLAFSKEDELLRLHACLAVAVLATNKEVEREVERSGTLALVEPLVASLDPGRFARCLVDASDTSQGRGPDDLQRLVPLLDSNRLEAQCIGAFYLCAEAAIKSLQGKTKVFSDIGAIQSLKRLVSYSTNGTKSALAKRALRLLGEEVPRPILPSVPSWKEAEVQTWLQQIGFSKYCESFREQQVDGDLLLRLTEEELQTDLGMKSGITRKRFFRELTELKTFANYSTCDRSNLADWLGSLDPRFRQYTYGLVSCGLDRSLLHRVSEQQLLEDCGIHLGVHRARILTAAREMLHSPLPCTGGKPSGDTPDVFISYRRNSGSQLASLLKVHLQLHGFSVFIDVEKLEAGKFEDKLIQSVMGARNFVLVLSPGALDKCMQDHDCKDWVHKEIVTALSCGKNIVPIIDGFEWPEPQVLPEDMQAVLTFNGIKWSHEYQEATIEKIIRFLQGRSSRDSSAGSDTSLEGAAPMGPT
Put plainly: FL-SARM1 cellular lysate assay (NAD/NADH-Glo detection of remaining NAD+, NMN-activated).

Setting [1] is: Activity (μM) (IC50), 11 point curve.
Setting [2] is: read-out: Activity (IC50 class), 11 point curve.
Setting [3] is: Activity (IC50 class), 11 point curve.

SMILES strings stand for the structures. Like-named read-outs stand apart in the source and are kept apart here. Bounds are passed on as bounds.

Experimental: Preparation of full-length SARM1 (FL-SARM1) lysate: HEK293T cells (ATCC: CRL-3216) were grown on 150 mm TC-treated dishes to 80-90% confluency in complete DMEM (DMEM (Thermo Fisher: 11965175) supplemented with 10% HI—FBS (VWR: 10802-772), 1× Pen/Strep (Thermo Fisher: 15140122), 1×NEAA (Thermo Fisher: 1140050), 1× glutamax (Thermo Fisher: 35050061), and 1 mM sodium pyruvate (Thermo Fisher: 11360070)) at 37° C. and 5% CO2. One hour prior to transfection, the media was replaced with fresh, 37° C. complete DMEM (20 mL per one 150 mm dish) supplemented with additional 10 mM glucose (Alfa Aesar AAJ60067EQE). Per one 150 mm dish, 30 μg FL-SARM1 (SEQ. ID. 1; cloned in-house) plasmid was dissolved in 1 mL DMEM at ambient temperature and were mixed by inverting the tube 8-10 times. 90 μL of GenJet™ in vitro DNA transfection reagent (Ver2) was dissolved in 1 mL DMEM at ambient temperature and were mixed by inverting the tube 8-10 times. The plasmid and transfection agent solutions were combined, mixed by 8-10 inversions and incubated for 10 minutes at ambient temperature. 2 mL of this transfection mixture was added to each dish containing HEK293T cells as prepared above followed by a gentle mixing of 4-5 horizontal rotations. The dishes were incubated at 37° C. and 5% CO2 for 24 h. The dishes were removed from the incubator, the medium was aspirated and the cells were scraped off using cell scrapers in ice-cold 1×PBS (5 mL/dish, Thermo Fisher Scientific 10010023). The collected cells were centrifuged at 300 g for 5 minutes at 4° C. The supernatant was aspirated and the pellet was frozen at −80° C. until needed. The cell pellet from 30 dishes was dissolved in 30 mL 1×PBS supplemented with 4 tablets of Complete, Mini EDTA-free protease inhibitor cocktail at 4° C. This mixture was sonicated on ice for 10 minutes at 50% amplitude with a 1 second on/1 second off interval using a Model 120 sonicator (Thermo Fisher Scientific, FB120110). The lysate was centrifuged at 16000 g for 10 minutes at 4° C.
To a white 384-well Proxiplate (PerkinElmer, PE-6008280) was added 50 nL/well of a DMSO solution containing test compounds followed by 7.5 μL/well of a 0.067 mg/mL solution of SARMi cellular lysate in reaction buffer (DPBS containing CHAPSO (0.1%) and fatty acid free BSA (0.032%)). The plate was centrifuged for 1 minute at 1000 RPM and then placed in an incubator at 23° C. for 15 minutes. To the wells were added 2.5 μL/well of a solution containing 40 M NAD^+ and 4 mM nicotinamide mononucleotide (NMN) in reaction buffer. The plate was centrifuged for 1 min at 1000 RPM, the plate was sealed and placed in an incubator at 23° C. for 3.5 hours before adding 3.5 μL/well of NAD/NADH-Glo™ solution (preparation as described by Promega using the extended detection protocol). The plate was centrifuged for 1 minute at 1000 RPM and then incubated at 23° C. for 20 minutes. 1 μL/well of a 3.625 mM solution of menadione in DMSO was added and the plate was centrifuged for 1 minute at 1000 RPM. Relative light units (RLU) were recorded using an Envision plate reader at a height of 6.5 mm.
IC50 values were calculated from an 11 point curve using ½ log dilutions using a four-parameter logistic regression curve fit.

`Cc1cc(F)c(NC(=O)N2[C@@H]3C[C@@H](C)C[C@H]2C3)cc1-c1cccnn1` [Example 256, cis-N-(2-fluoro-4-methyl-5-pyridazin-3-ylphenyl)-3-methyl-6-azabicyclo[3.1.1]heptane-6-carboxamide]: the IC50 was 0.1 µM under setting [1] and 0.0001 to 1 µM under setting [2].
In the case of `Cc1ccc(NC(=O)C(C)C2CCC2)cc1-c1cccnn1` (racemic) [Example 297, 2-cyclobutyl-N-(4-methyl-3-pyridazin-3-ylphenyl)propanamide], the IC50 was 1 to 10 µM under setting [3] and 6.5 µM under setting [1].
With `Cc1ccc(NC(=O)[C@@H]2CN(CC(F)(F)F)C[C@H]2c2ccccn2)cc1-c1ncc(F)cn1` (racemic) [Example 280, trans-N-[3-(5-fluoropyrimidin-2-yl)-4-methylphenyl]-4-pyridin-2-yl-1-(2,2,2-trifluoroethyl)pyrrolidine-3-carboxamide], the IC50 runs as follows: under setting [3], more than 10 µM; under setting [1], 28 µM.
For `COc1ccnc(-c2cc(NC(=O)N3C4CCCC3C4)ccc2C)n1` [Example 65, N-(3-(4-methoxypyrmidin-2-yl)-4-methyl-phenyl)-6-azabicyclo[3.1.1]heptane-6-carboxamide], in that order: 1 to 10 µM and 2.3 µM.
With `Cc1ccc(NC(=O)[C@H]2C[C@H]3C[C@H]3N2c2ncccn2)cc1-c1ncc(F)cn1` [Example 267, (1R,3R,5R)-N-[3-(5-fluoropyrimidin-2-yl)-4-methylphenyl]-2-pyrimidin-2-yl-2-azabicyclo[3.1.0]hexane-3-carboxamide], the IC50 reads like this: under setting [3], 1 to 10 µM; under setting [1], 3.1 µM.
Taken in the same sequence, the figures for `Cc1cc(F)cnc1-c1cccc(NC(=O)N2C3CCCC2C3)c1` [Example 81, N-[3-(5-fluoro-3-methylpyridin-2-yl)phenyl]-6-azabicyclo[3.1.1]heptane-6-carboxamide] were 1 to 10 µM and 3.4 µM.
For `Cc1ccc(NC(=O)N2CCCC3C2C3C(F)(F)F)cc1-c1ccccn1` (mixture of isomers) [Example 98, N-(4-methyl-3-pyridin-2-ylphenyl)-7-(trifluoromethyl)-2-azabicyclo[4.1.0]heptane-2-carboxamide], in that order: more than 10 µM and 20 µM.
For the molecule `Cc1cc(F)c(NC(=O)N2[C@@H]3C[C@@H](C)C[C@@]2(C(C)(C)O)C3)cc1-c1ncc(F)cn1` (racemic) [Example 183, cis-N-(2-fluoro-5-(5-fluoropyrimidin-2-yl)-4-methylphenyl)-1-(2-hydroxypropan-2-yl)-3-methyl-6-azabicyclo[3.1.1]heptane-6-carboxamide], the IC50 is 0.06 µM under setting [1] and 0.0001 to 1 µM under setting [2].
For `C[C@@H]1C[C@@H]2C[C@H](C1)N2C(=O)Nc1cc(-c2nccnn2)c(Cl)cc1F` [Example 323], in that order: 0.2 µM and 0.0001 to 1 µM.
Take `Cc1ccc(NC(=O)CC2CCC2)cc1-c1ncccc1F` [Example 165, 2-cyclobutyl-N-[3-(3-fluoropyridin-2-yl)-4-methylphenyl]acetamide]: the IC50 is, setting by setting: under setting [3], 1 to 10 µM; under setting [1], 5.3 µM.
`Cc1ccc(NC(=O)N2C3C[C@@H](C)C[C@H]2C3)cc1-c1cncc(Cl)n1` [Example 217, cis-N-(3-(6-chloropyrazin-2-yl)-4-methylphenyl)-3-methyl-6-azabicyclo[3.1.1]heptane-6-carboxamide]: the IC50 under setting [1] is 0.04 µM and the IC50 under setting [2] is 0.0001 to 1 µM.
On to `Cc1ccc(NC(=O)C2CCC[C@@H](C)N2c2ccccn2)cc1-c1ncc(F)cn1` (mixture of isomers) [Example 258, cis-N-(3-(5-fluoropyrimidin-2-yl)-4-methylphenyl)-6-methyl-1-(pyridin-2-yl)piperidine-2-carboxamide], for which the IC50 was 1 to 10 µM under setting [3] and 2.4 µM under setting [1].
Taken in the same sequence, the figures for `COC(C)[C@@]12CC(C[C@@H](C)C1)N2C(=O)Nc1ccc(C)c(-c2ncc(F)cn2)c1` (single isomer, unassigned) [Example 192, cis-N-(3-(5-fluoropyrimidin-2-yl)-4-methylphenyl)-1-(−1-methoxyethyl)-3-methyl-6-azabicyclo[3.1.1]heptane-6-carboxamide] were 1 to 10 µM and 1 µM.
For `O=C(Nc1ccc(C(F)(F)F)c(-c2ccc(F)cn2)c1)N1C2CCC1c1ccccc12` [Example 57, N-(3-(5-fluoropyridin-2-yl)-4-(trifluoromethyl)phenyl)-1,2,3,4-tetrahydro-1,4-epiminonaphthalene-9-carboxamide], in that order: 1 to 10 µM and 3.7 µM.
In the case of `Cc1ccc(NC(=O)C2CC3CC[C@@H]2C3)cc1-c1ccccn1` (single isomer, unassigned) [Example 140], the IC50 runs as follows: under setting [1], 0.9 µM; under setting [2], 0.0001 to 1 µM.
For `Cc1ccc(NC(=O)C2C3CCC2CC3)cc1-c1cccnn1` (stereo not shown) [Example 103, N-(4-methyl-3-pyridazin-3-ylphenyl)bicyclo[2.2.1]heptane-7-carboxamide], in that order: 0.5 µM and 0.0001 to 1 µM.
As for `O=C(Nc1ccc(C(F)(F)F)c(-c2ccc(F)cn2)c1)N1C2CCCC1C2` [Example 56, N-(3-(5-fluoropyridin-2-yl)-4-(trifluoromethyl)phenyl)-6-azabicyclo[3.1.1]heptane-6-carboxamide], the IC50 is, setting by setting: under setting [3], 1 to 10 µM; under setting [1], 2.2 µM.
In the case of `Cc1ccc(NC(=O)N2C3CC2CN(CC(F)F)C3)cc1-c1ccccn1` [Example 5, 3-(2,2-difluoroethyl)-N-(4-methyl-3-(pyridin-2-yl)phenyl)-3,6-diazabicyclo[3.1.1]heptane-6-carboxamide], the IC50 was 0.8 µM under setting [1] and 0.0001 to 1 µM under setting [2].
In the case of `Cc1ccc(NC(=O)N2CC3CC3(c3ccccc3)C2)cc1-c1ccccn1` (stereo not shown) [Example 94, N-(4-methyl-3-pyridin-2-ylphenyl)-1-phenyl-3-azabicyclo[3.1.0]hexane-3-carboxamide], the IC50 runs as follows: under setting [3], more than 10 µM; under setting [1], 15 µM.
Consider `Cc1ccc(NC(=O)[C@H]2C[C@@H]2c2ccccc2)cc1-c1ncc(F)cn1` (racemic) [Example 257, trans-N-(3-(5-fluoropyrimidin-2-yl)-4-methylphenyl)-2-phenylcyclopropane-1-carboxamide], for which the IC50 is more than 10 µM under setting [3] and 30 µM under setting [1].
For `Cc1ccc(NC(=O)CC2CCC2)cc1-c1ccc(F)cn1` [Example 164, 2-cyclobutyl-N-[3-(5-fluoropyridin-2-yl)-4-methylphenyl]acetamide], in that order: 1 to 10 µM and 1.4 µM.
For `COc1cccnc1-c1cc(NC(=O)N2C3CCCC2C3)ccc1C` [Example 58, N-(3-(3-methoxypyridin-2-yl)-4-methylphenyl)-6-azabicyclo[3.1.1]heptane-6-carboxamide], in that order: more than 10 µM and 12 µM.
As for `Cc1ccc(NC(=O)N2CCOc3ccccc3C2)cc1-c1ccccn1` [Example 102, N-(4-methyl-3-pyridin-2-ylphenyl)-3,5-dihydro-2H-1,4-benzoxazepine-4-carboxamide], the IC50 is, setting by setting: under setting [1], 0.9 µM; under setting [2], 0.0001 to 1 µM.
Take `Cc1ccc(NC(=O)N2CC(C3CC3)C2)cc1-c1ccccn1` [Example 25, 3-cyclopropyl-N-(4-methyl-3-(pyridin-2-yl)phenyl)azetidine-1-carboxamide]: the IC50 by setting is: under setting [3], 1 to 10 µM; under setting [1], 6.7 µM.
For `CC1(c2ccc(NC(=O)[C@@H]3CC3(F)F)cc2-c2ccccn2)CC1` [Example 133, (1S)-2,2-difluoro-N-[4-(1-methylcyclopropyl)-3-pyridin-2-ylphenyl]cyclopropane-1-carboxamide], in that order: more than 10 µM and 24 µM.
Take `C[C@@H]1C[C@@H]2C[C@H](C1)N2C(=O)Nc1ccc(C#N)c(-c2ccccn2)c1` [Example 42, cis-N-(4-cyano-3-(pyridin-2-yl)phenyl)-3-methyl-6-azabicyclo[3.1.1]heptane-6-carboxamide]: the IC50 reads like this: under setting [1], 0.05 µM; under setting [2], 0.0001 to 1 µM.
For `O=C(Nc1ccc(C2CC2)c(-c2ccc(F)cn2)c1)N1C2CCCC1C2` [Example 36, N-(4-cyclopropyl-3-(5-fluoropyridin-2-yl)phenyl)-6-azabicyclo[3.1.1]heptane-6-carboxamide], the IC50 reads like this: under setting [3], 1 to 10 µM; under setting [1], 1.1 µM.
As to `Cc1ccc(NC(=O)N2C3CCCC2C3)cc1-c1cccnn1` [Example 54, N-(4-methyl-3-(pyridazin-3-yl)phenyl)-6-azabicyclo[3.1.1]heptane-6-carboxamide], the IC50 reads like this: under setting [1], 0.5 µM; under setting [2], 0.0001 to 1 µM.
With `Cc1ccc(NC(=O)N2C3CC(C)CC2(C(C)O)C3)cc1-c1ncc(F)cn1` (single isomer, unassigned) [Example 194, cis-N-(3-(5-fluoropyrimidin-2-yl)-4-methylphenyl)-1-(1-hydroxyethyl)-3-methyl-6-azabicyclo[3.1.1]heptane-6-carboxamide], the IC50 is 0.01 µM under setting [1] and 0.0001 to 1 µM under setting [2].

The term IC50 denotes the concentration needed to halve the response being measured.
